Assay results reported in patent publication US5733893A, “Method of identifying molecules that regulate FGF activity” (Washington University, priority 1995, dated 1998).
“Also recorded” adds a separate entry of the source.

Legend:
[1] = test system: FGFR1-expressing BaF3 cells; assay: bFGF mitogenic activity, 3H-thymidine incorporation into FGFR1-expressing BaF3 cells; assay type: cell-based; details: for mitogenic activity with bFGF (in words): FGFR1-expressing BaF3 cells; for Mitogenic activity: relative concentration (wt/vol.) required to incorporate 2 × 10^4 cpm 3H-thymidine into F32 cell DNA: relative to heparin (1.0), ± standard deviation; for mitogenic activity with bFGF (in words) / Mitogenic activity: relative concentration (wt/vol.) required to incorporate 2 × 10^4 cpm 3H-thymidine into F32 cell DNA: bFGF; for fold more active than SOS: FGFR1-expressing BaF3 cell growth with bFGF
From the text: This cell line was used to assay synthetic heparin/HS molecules as potential activators or inhibitors of heparin/HS-dependent mitogenesis (3).

bFGF [2] = molecular target: T1, bFGF (Homo sapiens, UniProt P09038); assay: competition with 125I-heparin binding to bFGF; details: for IC50: 4 nM FGF, read-out: IC50 (50% competition for 125I-heparin binding to bFGF) (converted); for binding to bFGF/FGF (in words): competition with 125I-heparin
T1 construct: purchased Scios Nova
T1 sequence (P09038 134-288): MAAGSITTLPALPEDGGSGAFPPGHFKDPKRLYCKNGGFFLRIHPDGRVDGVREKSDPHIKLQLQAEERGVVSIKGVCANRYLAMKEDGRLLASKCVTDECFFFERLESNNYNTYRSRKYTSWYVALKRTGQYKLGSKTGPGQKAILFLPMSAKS
Method: FIG. 2A: Binding of oligosaccharides to bFGF as determined by competition with ^125 I-heparin (30).
(§1) The ability of these small oligosaccharides to compete with the binding on ^125 I-heparin to FGF was also assayed. Heparin iodination was carried out by previously published procedure (30). Heparin binding to FGF was determined by incubating 4 nM FGF with ^125 I-heparin and competitor polysaccharide. Complexes were immunoprecipitated with 1:250 dilutions of monoclonal antibody DG2 (DuPont/Merck) (for bFGF) or a polyclonal antibody (for aFGF), and protein A SEPHAROSE (Sigma Chemical Co.). Washing and quantitation was carried out by procedures previously published for soluble receptor-binding assays (3).
(§2) 12. Heparin iodination was as in (30). Heparin binding to FGF was determined by incubating 4 nM FGF with ^125 I-heparin and competitor polysaccharide. Complexes were immunopredpitated with 1:250 dilutions of monoclonal antibody DG2 (for bFGF) or a polydonal antibody (for aFGF), and protein A sepharose (Sigma). Washing and quantitation was as previously described for soluble receptor binding assays (3).

aFGF = assay: competition with 125I-heparin binding to aFGF
Method: as §1, §2

bFGF-FRAP binding = assay: binding of 125I-bFGF to soluble receptor FRAP in presence of oligosaccharide; details: oligosaccharides 2 μg/ml or increasing concentrations
Method: FIG. 2B: Binding of ^125 I-bFGF to FRAP (3), a soluble receptor, in the presence of the indicated oligosaccharide: *, no heparin added; heparin, 50 ng/ml; the remaining oligosaccharides (Di-1 to SOS) were added at a concentration of 2 μg/ml. FGFs were labeled by the Chloramine T method as previously described (31).
(§3) FIG. 2C: Acidic FGF binding to FRAP; FIG. 2D:, basic FGF binding to FRAP. ^125 I-FGFs were incubated with FRAP in the presence of increasing concentrations of heparin or Tri-3; Binding assays were performed as previously described (3).
(§4) The FGFR1-expressing BaF3 cell line was used to assay synthetic heparin/HS molecules as potential activators or inhibitors of heparin/HS-dependent mitogenesis by an assay procedure published previously (3). Such cell lines, which express FGRF1, require heparin/HS and FGF for growth (3). […]
Binding of bFGF to a soluble FGFR-alkaline phosphatase fusion protein (FRAP) or to a cell-surface FGFR is enhanced by heparin/HS or by heparin-derived oligosaccharides (8 to 12 sugar residues) (3,4). The ability of heparin/HS-derived di- and tri-saccharides to enhance FGF-FRAP binding in vitro was measured (3).

[3] = test system: FGFR1-expressing BaF3 cells; assay: aFGF mitogenic activity, 3H-thymidine incorporation into FGFR1-expressing BaF3 cells; assay type: cell-based
From the text: Activation of bFGF mitogenic activity as measured by ^3 H-thymidine incorporation into FGFR1-expressing BaF3 cells treated with 150 pM bFGF and increasing concentrations of the indicated oligosaccharides is shown. FIG. 1B.
as §4
However, their potency relative to that of heparin is less than that observed with bFGF (FIG. 1B).

bFGF [4] = molecular target: T1, bFGF; assay: bFGF dimerization by crosslinking and electrophoresis; assay type: biochemical; details: for induction of FGF dimers (in words): crosslinking
Method: 670 nM bFGF and 3×10^5 cpm ^125 I-bFGF were incubated with the indicated concentration of (μg/ml) Tri-3 or HS-16. Crosslinking and electrophoresis were performed as previously described (3). Dimer (45 kD) band intensities were quantified by scanning densitometry and plotted above each lane. Molecular weight markers (kD) are shown at the right.

aFGF binding to FRAP = assay: binding of 125I-aFGF to soluble receptor FRAP in presence of oligosaccharide; details: increasing concentrations
Method: as §3, §4

FGF receptors = assay: dimerization of FGF receptors on BaF3-FGFR1 cells by crosslinking; assay type: cell-based; details: BaF3-FGFR1 cells with FGF-2
Method: Binding media (DMEM/0.1% BSA) was supplemented with the indicated concentration of heparin or Tri-3.(*) 200 ng/ml unlabeled FGF-2 added to binding media; Cells were washed once with the same media used for binding, and once with PBS. Crosslinking was as described previously (27).
Crosslinked receptors were electrophoresed on a 5% SDS polyacrylamide gel under reducing condition, and visualized by autoradiography. The lower band corresponds to receptor monomers crosslinked to FGF-2. The upper band corresponds to receptor dimers crosslinked to each other and to FGF-2. Molecular weights (kD) are shown at the right.
Binding media (DMEM/0.1% BSA) was supplemented with the indicated concentration of heparin or Tri-3.(*) 200 ng/ml unlabeled FGF-2 added to binding media; Cells were washed once with the same media used for binding, and once with PBS. Crosslinking was as described previously
Crosslinked receptors were electrophoresed on a 5% SDS polyacrylamide gel under reducing condition, and visualized by autoradiography. The lower band corresponds to receptor monomers crosslinked to FGF-2. The upper band corresponds to receptor dimers crosslinked to each other and to FGF-2.

Row | SMILES | mitogenic activity with bFGF (in words) [1] | Mitogenic activity: relative concentration (wt/vol.) required to incorporate 2 × 10^4 cpm 3H-thymidine into F32 cell DNA [1] | IC50 (bFGF [2]) | binding to bFGF/FGF (in words) (bFGF [2]) | binding to aFGF (in words) (aFGF) | fold more active than SOS [1] | mitogenic activity with bFGF (in words) ([1]; listed as D-4) | enhancement of bFGF-FRAP binding (in words) (bFGF-FRAP binding) | proliferation of FGFR1-expressing BaF3 cells in the presence of aFGF (in words) [3] | mitogenic activity with bFGF (in words) ([1]; listed as D-3) | induction of FGF dimers (in words) (bFGF [4]) | aFGF binding to FRAP (in words) (aFGF binding to FRAP) | optimal concentration for dimerization activity (bFGF [4]; 670 nM bFGF) | dimerization of FGF receptors (in words) (FGF receptors)
1 | O=S(=O)(O)OC[C@H]1O[C@@](COS(=O)(=O)O)(O[C@H]2O[C@H](COS(=O)(=O)O)[C@@H](OS(=O)(=O)O)[C@H](OS(=O)(=O)O)[C@H]2OS(=O)(=O)O)[C@@H](OS(=O)(=O)O)[C@@H]1OS(=O)(=O)O [SOS, sucrose octasulfate, reference compound] | minimal biological activity | 1380.8 ± 30.6 | 94.6 µM | bind | bind | – | – | – | – | – | – | – | – | –
2 | CO[C@H]1O[C@H](CO)[C@@H](O[C@@H]2O[C@H](C(=O)O)[C@@H](O)[C@H](O)[C@H]2O)[C@H](O)[C@H]1NS(=O)(=O)O [Di-4, β-D-GlcA-(1→4)-α-D-GlcNSO3 -1→OMe] | intermediate mitogenic activity | 24.7 | – | bind | bind | 55 fold | the most active of the disaccharides | enhance bFGF-FRAP binding | – | – | – | – | – | –
3 | CO[C@@H]1O[C@H](C(=O)O)[C@@H](O[C@H]2O[C@H](CO)[C@@H](O[C@@H]3O[C@H](C(=O)O)[C@@H](O)[C@H](O)[C@H]3O)[C@H](O)[C@H]2NC(C)=O)[C@H](O)[C@H]1O [Tri-1, β-D-GlcA-(1→4)-α-D-GlcNAc-(1→4)-β-D-GlcA-1→OMe] | active at concentrations comparable to that of heparin; also recorded: higher than expected mitogenic activity | 1.2 ± 0.2 | 19.9 µM | bind and affinity higher than that of SOS | bind | – | – | inability of Tri-1 to enhance FGF-FRAP binding | stimulate the proliferation | – | – | – | – | –
4 | CO[C@H]1O[C@H](CO)[C@@H](O[C@@H]2O[C@H](C(=O)O)[C@@H](O)[C@H](O)[C@H]2O)[C@H](O)[C@H]1NC(C)=O [Di-3, β-D-GlcA-(1→4)-α-D-GlcNAc-1→OMe] | intermediate mitogenic activity | 26.0 | – | bind | bind | 55 fold | – | enhance bFGF-FRAP binding | – | the most active of the disaccharides | induce FGF dimers as well as higher order oligomers | – | – | –
5 | CO[C@H]1O[C@H](CO)[C@@H](O[C@@H]2O[C@@H](C(=O)O)[C@@H](O)[C@H](O)[C@H]2O)[C@H](O)[C@H]1NC(C)=O [Di-1, α-L-IdoA-(1→4)-α-D-GlcNAc-1→OMe] | no activity | – | – | – | – | – | – | – | – | – | – | – | – | –
6 | CO[C@@H]1O[C@H](C(=O)O)[C@@H](O[C@H]2O[C@H](CO)[C@@H](O[C@@H]3O[C@@H](C(=O)O)[C@@H](O)[C@H](O)[C@H]3O)[C@H](O)[C@H]2NC(C)=O)[C@H](O)[C@H]1O [Tri-3, α-L-IdoA-(1→4)-α-D-GlcNAc-(1→4)-β-D-GlcA-1→OMe] | active at concentrations comparable to that of heparin; also recorded: higher than expected mitogenic activity; also recorded: the most active compound tested | 3.2 | 9.87 µM | bind and affinity higher than that of SOS | bind | – | – | enhance bFGF-FRAP binding; also recorded: increases in a dose-dependent manner; also recorded: reproducibly exceeds that with heparin | stimulate the proliferation | – | induce FGF dimers as well as higher order oligomers | increases in a dose-dependent manner | 35 µg/mL | dimerization of FGF receptors induced
7 | CO[C@@H]1O[C@H](C(=O)O)[C@@H](O[C@H]2O[C@H](CO)[C@@H](O[C@@H]3O[C@@H](C(=O)O)[C@@H](O)[C@H](O)[C@H]3O)[C@H](O)[C@H]2NS(=O)(=O)O)[C@H](O)[C@H]1O [Tri-2, α-L-IdoA-(1→4)-α-D-GlcNSO3 -(1→4)-β-D-GlcA-1→OMe] | intermediate mitogenic activity; also recorded: lack of activity | 470.6 ± 25.6 | – | affinity less than that of SOS | – | – | – | – | – | – | – | – | – | –
8 | CO[C@@H]1O[C@H](C(=O)O)[C@@H](O[C@H]2O[C@H](CO)[C@@H](O)[C@H](O)[C@H]2NC(C)=O)[C@H](O)[C@H]1O [Di-5, D-GlcNAc-(1→4)-β-D-GlcA-1→OMe] | intermediate mitogenic activity | 463.6 | – | – | – | – | – | – | – | – | – | – | – | –
9 | CO[C@H]1O[C@H](CO)[C@@H](O[C@@H]2O[C@@H](C(=O)O)[C@@H](O)[C@H](O)[C@H]2O)[C@H](O)[C@H]1NS(=O)(=O)O [Di-2, α-L-IdoA-(1→4)-α-D-GlcNSO3 -1→OMe] | intermediate mitogenic activity; also recorded: higher than expected mitogenic activity | 69.5 ± 9.6 | – | affinity less than that of SOS | – | – | – | – | – | – | – | – | – | –
